According to article PMC6895199, “A new antiviral scaffold for human norovirus identified with computer-aided approaches on the viral polymerase” (Scientific Reports, 2019):
Read-outs that look alike come from different tables or passages of the source.

Experiments:
HuNoV (GII.4) RdRp [1] = target: HuNoV (GII.4) RdRp (Norovirus Hu/GII.4/Sydney/NSW0514/2012/AU, UniProt K4L8Z7); assay: Quantitative fluorescent RdRp activity assay (PicoGreen, poly(C) template); type: biochemical, human norovirus Sydney 2012
Experimental: The newly synthesised compounds, including the carboxylate ester derivatives 34–35 and 7 from the Core Hopping approach, were evaluated for their enzymatic inhibition of human norovirus Sydney 2012 (HuNoV (GII.4)) RdRp activity in vitro, using a quantitative fluorescent assay. Compounds were tested at six different concentrations (concentration range examined: 0.1–100 µM) and compared to the relative activity of mock treated samples containing the vehicle only (0.5% DMSO [vol/vol]). PPNDS [Pyridoxal-5′-phosphate-6-(2′-naphthylazo-6′-nitro-4′,8′-disulfonate) tetrasodium salt], a previously reported potent inhibitor of NoV RdRp activity, and 1 were used as positive controls. Dose-dependent inhibitory response curves were used to establish IC50 values for the eight test compounds, as reported in Table 1 (see also Supplementary Fig. S1).
The newly prepared compounds 48–60 were initially evaluated against norovirus Sydney 2012 RdRp activity in vitro using a quantitative fluorescent assay. Compounds were tested at a fixed concentration of 20 µM and compared to the relative activity of mock treated samples. PPNDS and 1 were used as positive controls. […] These two rings are structural features present in 1 and in one of its derivatives we have previously reported. […] From these observations, the thiophene ring appears not to influence inhibitory activity. Derivatives in which the central core of 48 has been used to link the two terminal hydrophobic rings of 1 or of its derivatives we have previously reported[25] (55, 57, 58) appear to retain the RdRp inhibitory activity found for 48 (~20% at 20 µM). A similar effect is obtained when a sulfonyl group, as in our hit 1, is used to link ring 2, regardless if it is a thiazole (59) or an unsubstituted phenyl ring (60), to the rest of the molecule. […] Overall, even if showing a reduced biochemical activity in comparison with 1, some of the new derivatives can be considered as modest HuNoV RdRp inhibitors at 20 µM.
(§1) Fluorescent RdRp activity assays were carried out as previously described[12],[29]. Briefly, RdRp activity was quantified by monitoring the formation of double-stranded RNA (dsRNA) from a single stranded homopolymeric template, poly(C) (Sigma Aldrich), using the fluorescent dye PicoGreen (Life Technologies, Carlsbad, CA, USA). RdRp assays were performed in 384-well plates, and each reaction mixture contained 400 ng enzyme, 45 μM GTP, 10 ng/μL poly(C) RNA, 2.5 mM MnCl2, 5 mM dithiothreitol, (DTT), 0.01% bovine serum albumin (BSA), and 0.005% Tween 20 in 20 mM Tris-HCl, pH 7.5, with a final reaction volume of 25 μL. The PPNDS and compound 1 were used as a positive controls. RdRps were incubated for 10 mins at 30 °C in the presence of the test compounds or the compound vehicle DMSO (0.5% vol/vol) before addition into the reaction mixture, which was then allowed to run 15 min at 30 °C then terminated with 10 mM EDTA, followed by PicoGreen staining and dsRNA quantitation. GraphPad Prism V6.05 (La Jolla, CA, USA) was used to plot the IC50 values. A secondary gel-based polymerase activity assay was used as a counter-screen as described below, to exclude the possibility of RdRp activity enhancement. Primed elongation activity was examined in a gel-based assay as previously described[12],[29] using the RNA template (PE44-NoV). Gels were imaged using BioRad (Hercules, CA, U.SA) Geldoc Universal Hood II, running BioRad Image Lab software, V4.1, build 16.

HuNoV (GII.4) RdRp [2] = assay: Counter-screen gel-shift assay of primed elongation activity (PE44-NoV template); type: biochemical, human norovirus; conditions: fixed concentration of 100 μM
Experimental: To further confirm RdRp inhibition and exclude any potential false positives from the first fluorescence RdRp assay, the eight molecules were then assessed using a gel-shift enzyme activity assay at a fixed concentration of 100 μM, following a procedure previously adopted by our research group.
Figure 5 A counter-screen gel-shift assay was used to confirm HuNoV (GII.4) RdRp inhibitory activity of compounds 2, 3, 34 and 35 (A), 4, 5, 6 (B) and 7 (C). The eight compounds were examined for inhibition of primed elongation activity. PE44-NoV RNA templates (32 nucleotides) were extended (44 nucleotides) by the RdRp in the absence of any test compounds (0.5% DMSO [vol/vol] negative control) or with test compounds at a fixed concentration of 100 μM. […] Full-length gels are presented in Supplementary Fig. S3.
as §1

HuNoV GI.1 replicon = assay: HuNoV GI replicon assay (HGT-NV cells, qRT-PCR); type: cell-based, human norovirus GI.1
Experimental: Given that in this system the gene encoding for the major capsid protein is replaced by a neomycin resistance gene, no new virus particles will be produced but the non-structural proteins are expressed and the replication of the genomic RNA can be studied.
(§2) Cells and virus: MNV (virus strain MNV-1.CW1) was propagated in RAW 264.7 cells grown in DMEM (Life Technologies, Gent, Belgium) supplemented with 10% or 2% FBS, 2 mM L-glutamine, 20 mM HEPES, 0.075 g/L sodium bicarbonate, 1 mM sodium pyruvate, 100 U penicillin/mL and 100 µg/mL streptomycin at 37 °C in a humidified atmosphere of 5% CO2. The human norovirus GI.1 replicon harboring gastric tumor-1 cell line (HGT-NV) (kindly provided by Dr. Ian Goodfellow, University of Cambridge) was maintained in DMEM supplemented with 10% FBS, 2mM L-glutamine, 0.075 g/L sodium bicarbonate and 1.0 mg/ml of Geneticin (G418; Life Technologies), at 37 °C in a humidified atmosphere of 5% CO2[34].
Antiviral assay with the HGT-NV replicon: The inhibitory effect of Compounds on human norovirus replication was assessed by quantification of the levels of HuNoV GI replicon RNA and of the reference (housekeeping) gene β-actin mRNA [by quantitative reverse transcription polymerase chain reaction (qRT-PCR)]. To this end, HGT cells (2000 cells/well) were seeded in 96-well plates, in complete DMEM without the selection marker G418. Following an incubation period of 24 h, a serial dilution of rupintrivir was added to the cultures. After 72 h of incubation, cell monolayers were washed with phosphate-buffered saline (PBS) and collected for quantification of RNA load by qRT-PCR. Intracellular RNA was extracted from cells using the cell-to-cDNA lysis buffer (Ambion, Life Technologies). For detection of HuNoV GI replicon RNA, forward (5′-CCG GCT ACC TGC CCA TTC-3′), reverse (5′-CCAGATCATCCTGATCGACAAG-3′) primers and probe (5′-FAM-ACATCGCATCGAGCGAGCACGTAC-TAMRA-3′) for the neomycin gene were used. For detection of β-actin mRNA, forward (5′-GGCATCCACGAAACTACCTT-3′), reverse (5′-AGCACTGTGTTGGCGTACAG-3′) primers and probe (5′-HEX-ATCATGAAGTGTGACGTGGACATCCG-BHQ1–3′) were used. One-step qRT-PCR was performed in a 20 µL reaction mixture containing 10 µl 2X iTaq Universal SYBR® Green one step reaction mix (Bio-rad, California, USA), 5.17 µl RNAse free water, 0.5 µl of iScript reverse transcriptase (Bio-rad, California, USA), 4 µl of the template RNA and either 300 nM of HuNoV GI replicon primers and probe, 300 nM of β-actin primers and 200 nM of probe. Cycling conditions were: reverse transcription at 50 °C for 10 min, initial denaturation at 95 °C for 3 min, followed by 40 cycles of denaturation at 95 °C for 15 s, annealing and extension at 60 °C for 30 seconds (Roche Lightcycler®96, Roche Diagnostics, Belgium). To determine the relative expression levels of HuNoV GI replicon RNA, β-actin was used as a normalizer and ratios were calculated using the Pfaffl method. The Expression Ratio (HuNoV GI Replicon/β-actin) was calculated as: Expression Ratio = (E HuNoV)^ΔCT, HuNoV (CC – TC)/(Eβ-actin)^ΔCT, β-actin (CC – TC), where E HuNoV and Eβ-actin represent the amplification efficiency (E = 10^–1/slope) for the HuNoV GI replicon and β-actin qRT-PCR reactions, respectively. ΔCT, HuNoV (CC – TC) is the Ct of untreated control cells (CC) minus the Ct of cells treated with a compound concentration (TC) obtained with HuNoV GI replicon primers and probe. ΔCT, β-actin (CC – TC) is the Ct of untreated control cells (CC) minus the Ct of cells treated with a compound concentration (TC) obtained with β-actin primers and probe. Efficiency values (E HuNoV and Eβ-actin) were determined for each qRT-PCR reaction.

MNV = MNV CPE reduction assay (MTS) in RAW 264.7 cells; type: cell-based, mouse norovirus (MNV-1.CW1); conditions: Norovirus, RAW264.7, in Mus musculus, Table 2, RAW 264.7, range 0.6–100 µM, at least three independent experiments
Experimental: The newly prepared compounds 2–7 and 34–35 were evaluated for their antiviral effect against the genogroup V mouse norovirus (MNV) using the mouse macrophage cell line RAW264.7. This assay evaluates the ability of the compounds to protect infected cells from the virus-induced cytopathic effect, thus being suitable to identify inhibition of virus replication at every step of the virus life cycle, and representing a robust cellular assay available for the rapid evaluation of potential norovirus inhibitors. Compounds identified using MNV have shown effects against HuNoV in vitro and in vivo, as in the case of nucleoside RdRp inhibitor 2′-C-methylcytidine (2CMC)[34]–[36]. Unfortunately, despite not presenting the aqueous solubility issues we had previously encountered for 1[29], no significant antiviral effect could be observed in this assay for the new compounds up to the maximum concentration tested. The new structural modifications, despite retaining inhibition of the RdRp in an isolated enzyme activity assay and showing no cytotoxic effects at the test concentrations in the MNV antiviral assay (Supplementary Table S1), are correlated with a lack of antiviral activity. As these new structures present the same limitation of most non-nucleoside HuNoV polymerase inhibitors reported so far[22], we were prompted to apply a different computer-aided strategy to further modify the scaffold of 1, with the aim to achieve an antiviral effect in cellular systems. […]
Since the main scope of this work was to find new norovirus inhibitors which show antiviral effects against both the HuNoV RdRp and in norovirus-infected cells, priority was given to the evaluation of most of the new molecules for their antiviral activity against MNV in infected RAW cells. The nucleoside 2′-C-methylcytidine was used as positive control. The test compounds were evaluated at eight different concentrations (range 0.6–100 µM) and their ability to reduce the virus-induced cytopathic effect was assessed.
as §2
Antiviral assay with MNV: The antiviral activity of the Compounds was determined using an MTS [3-(4,5-dimethylthiazol-2-yl)-5-(3-carboxymethoxyphenyl)-2-(4-sulfophenyl)-2H-tetrazolium]-based cytopathic effect (CPE) reduction assay. […] Then, a MTS-phenazinemethosulfate (MTS/PMS) stock solution [(2 mg/mL MTS (Promega, Leiden, The Netherlands) and 46 µg/mL PMS (Sigma–Aldrich, Bornem, Belgium) in PBS at pH 6–6.5)] was diluted 1/20 in MEM (Life Technologies, Gent, Belgium) and 75 µL were added to each well. After 2 h, the optical density (OD) was read at 498 nm. The %CPE reduction was calculated as [(ODtreated)MNV − ODVC]/[ODCC − ODVC] × 100, where ODCC represents the OD of the uninfected untreated cells, whereas ODVC and (ODtreated)MNV represent the OD of infected untreated cells and virus-infected cells treated with a compound concentration, respectively. The 50% effective concentration (EC50) was defined as the compound concentration that protected 50% of the cells from virus-induced CPE[34].

[3] = Cytotoxicity by the MTS method on uninfected cells; type: cell-based; conditions: mouse, uninfected RAW 264.7 cells, Table 2, at least three independent experiments
Experimental: Cytotoxicity: The cytotoxicity of the Compounds was evaluated by the MTS method, by exposing uninfected cells to the same concentrations of compounds for 3 days. The %cell viability was calculated as (ODtreated/ODCC) × 100, where ODCC is the OD of uninfected untreated cells and ODtreated are uninfected cells treated with compound. The CC50 was defined as the compound concentration that reduces the number of viable cells by 50%[34].

[4] = Norwalk virus, HGT-1, 72 h, read-out: EC50 values (column head printed 'M'), HuNoV GI replicon in HGT-1 cells, replicon RNA by qRT-PCR

Row | Compound | EC50 (HuNoV GI.1 replicon; [4]) [µM] | EC50 (MNV) [µM] | CC50 at 3 days [3] [µM] | also measured
1 | Cc1nc(N=Nc2cc(S(=O)(=O)[O-])c3cc([N+](=O)[O-])cc(S(=O)(=O)[O-])c3c2)c(COP(=O)([O-])[O-])c(C=O)c1O.[Na+].[Na+].[Na+].[Na+] [PPNDS, Pyridoxal-5′-phosphate-6-(2′-naphthylazo-6′-nitro-4′,8′-disulfonate) tetrasodium salt, reference compound] | – | – | – | IC50 (HuNoV (GII.4) RdRp [1]; HuNoV (GII.4) RdRp activity, six concentrations 0.1–100 µM, mean ± SD): 1.5 ± 0.25 µM; inhibition of primed elongation activity (gel-shift) (HuNoV (GII.4) RdRp [2]): complete inhibition
2 | CCOC(=O)/C=C/[C@H](C[C@@H]1CCNC1=O)NC(=O)[C@@H](CC(=O)[C@@H](NC(=O)c1cc(C)on1)C(C)C)Cc1ccc(F)cc1 [Rupintrivir, reference compound] | 1.5 ± 0.4 | – | – | –
3 | O=C(NC(=S)Nc1ccc(N2CCN(S(=O)(=O)c3cccs3)CC2)cc1)c1ccccc1 [Compound 59, N-((4-(4-(Thiophen-2-ylsulfonyl)piperazin-1-yl)phenyl)carbamothioyl)benzamide] | 10 | 43.8 ± 16.9 | > 100 | EC50 values (column head printed 'M') (HuNoV GI.1 replicon; HuNoV GI replicon in HGT-1 cells, 72 h, replicon RNA by qRT-PCR): low micromolar range; EC50 (HuNoV GI.1 replicon; read-out: EC50 values (column head printed 'M'), HuNoV GI replicon in HGT-1 cells, 72 h, replicon RNA by qRT-PCR): 10.9 ± 11.1 µM
4 | O=C(NC(=S)Nc1ccc(N2CCN(C(=O)c3ccccc3)CC2)cc1)c1sc2ccccc2c1Cl [Compound 54, N-((4-(4-Benzoylpiperazin-1-yl)phenyl)carbamothioyl)-3-chlorobenzo[b]thiophene-2-carboxamide] | – | > 100 | 4.5 ± 0.7 | inhibition at 20 µM (HuNoV (GII.4) RdRp [1]; 20 µM, read-out: inhibition of HuNoV RdRp activity at fixed concentration): ≤ 60%
